Reference: US20130153815A1, “POLYMER COMPRISING A DYE, NANOPARTICLE COMPRISING THE POLYMER, AND METHODS OF PREPARING THE SAME” (Agency for Science, Technology and Research, priority 2011, published 2013)

Experiments:
[1] = UV absorption in methanol; type: physicochemical; details: methanol solution, 0.1 mM, 25° C.
Protocol: (§1) The absorbance bands of these spectra still remain at 820 nm after chemical modification and hybridization with polymers. The colloidal stability and aggregation were tested by using UV absorbance. Dye-Pol 1 and Dye-Pol 2 were mixed with phosphate buffered saline (PBS) buffer. The absorbance bands remain the same after 3 days (FIG. 7). Similar phenomenon happened to MNP 1 and MNP 2 (FIG. 8). […] FIG. 9 and FIG. 10 show the emission spectra in the near-infrared region (800-1500 nm), excited at 785 nm. The emission spectrum of IR820dye-NH2 is 1002 nm, slightly blue-shifted from 1076 nm (IR-820). Dye-Pol 1 and Dye-Pol 2 show the emission highest peak at 956 nm while the emission of MNP 1 and MNP 2 are 864 and 866 nm, respectively. Dye-Pol 1 and Dye-Pol 2 absorb at 820 nm and emit at 956 nm. They display a large Stokes shift (136 nm).

[2] = NIR photoluminescence emission spectra excited with a 785 nm laser diode; type: physicochemical; details: near-infrared region (800-1500 nm), excited at 785 nm
Protocol: as §1

absorbance band [1]: 820 nm | emission highest peak [2]: 1076 nm
Compound: CC1(C)C(=CC=C2CCCC(C=CC3=[N+](CCCCS(=O)(=O)[O-])c4ccc5ccccc5c4C3(C)C)=C2Cl)N(CCCCS(=O)(=O)[O-])c2ccc3ccccc3c21.[Na+] [IR-820]
